Experimental data taken from patent US7265103B2, “Substituted amino isoxazoline derivatives and their use as anti-depressants” (Janssen Pharmaceutica NV., priority 2002, dated 2007).

Columns and labels:
hα2A receptor = biological target: T1, hα2A receptor (Homo sapiens, UniProt P08913); test: Radioligand binding experiment for α2A-adrenergic receptor ([3H]-raulwolscine); conditions: CHO cell membranes with human α2A receptor, [3H]raulwolscine 1 nM; read-out: pIC50 α2A (converted)
T1 construct: expressed in transfected cells; host or cells: CHO cells
T1 sequence (P08913 1-465): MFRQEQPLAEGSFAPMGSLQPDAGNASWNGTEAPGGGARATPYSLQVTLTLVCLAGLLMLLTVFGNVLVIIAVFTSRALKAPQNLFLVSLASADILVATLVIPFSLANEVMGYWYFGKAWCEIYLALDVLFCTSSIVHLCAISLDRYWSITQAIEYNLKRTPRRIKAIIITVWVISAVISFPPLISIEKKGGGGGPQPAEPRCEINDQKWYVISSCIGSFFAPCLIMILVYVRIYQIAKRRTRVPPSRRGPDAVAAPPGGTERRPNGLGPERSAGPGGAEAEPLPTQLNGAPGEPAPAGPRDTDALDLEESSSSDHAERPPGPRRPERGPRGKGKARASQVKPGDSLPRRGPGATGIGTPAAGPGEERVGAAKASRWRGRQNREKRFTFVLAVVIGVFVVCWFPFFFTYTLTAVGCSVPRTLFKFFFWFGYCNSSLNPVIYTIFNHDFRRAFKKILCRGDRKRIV
Experimental: (§1) The interaction of the compounds of Formula (I) with hα2-receptors and h5-HT-transporters was assessed in in vitro radioligand binding experiments. In general, a low concentration of a radioligand with a high binding affinity for a particular receptor or transporter is incubated with a sample of a tissue preparation enriched in a particular receptor or transporter or with a preparation of cells expressing cloned human receptors in a buffered medium. During the incubation, the radioligand binds to the receptor or transporter. When equilibrium of binding is reached, the receptor bound radioactivity is separated from the non-bound radioactivity, and the receptor- or transporter-bound activity is counted. The interaction of the test compounds with the receptor is assessed in competition binding experiments. Various concentrations of the test compound are added to the incubation mixture containing the receptor- or transporter preparation and the radioligand. The test compound in proportion to its binding affinity and its concentration inhibits binding of the radioligand. The radioligand used for hα2A, hα2B and hα2C receptor binding was [^3H]-raulwolscine and for the h5-HT transporter was [^3H]paroxetine.
(§2) CHO cells, stabile transfected with human adrenergic-α2A-, -α2B or α2C receptor cDNA, were cultured in Dulbecco's Modified Eagle's Medium (DMEM)/Nutrient mixture Ham's F12 (ratio 1:1)(Gibco, Gent-Belgium) supplemented with 10% heat inactivated fetal calf serum (Life Technologies, Merelbeke-Belgium) and antibiotics (100 IU/ml penicillin G, 100 μg/ml streptomycin sulphate, 110 μg/ml pyruvic acid and 100 μg/ml L-glutamine). One day before collection, cells were induced with 5 mM sodiumbutyrate. Upon 80-90% of confluence, cells were scraped in phosphate buffered saline without Ca^2+ and Mg^2+ and collected by centrifugation at 1500×g for 10 min. The cells were homogenised in Tris-HCl 50 mM using an Ultraturrax homogenizer and centrifuged for 10 min at 23,500×g. The pellet was washed once by resuspension and rehomogenization and the final pellet was resuspended in Tris-HCl, divided in 1 ml aliquots and stored at −70° C.
(§3) Membranes were thawed and re-homogenized in incubation buffer (glycylglycine 25 mM, pH 8.0). In a total volume of 500 μl, 2-10 μg protein was incubated with [^3H]raulwolscine (NET-722) (New England Nuclear, USA) (1 nM final concentration) with or without competitor for 60 min at 25° C. followed by rapid filtration over GF/B filter using a Filtermatel 96 harvester (Packard, Meriden, Conn.). Filters were rinsed extensively with ice-cold rinsing buffer (Tris-HCl 50 mM pH 7.4). Filter-bound radioactivity was determined by scintillation counting in a Topcount (Packard, Meriden, Conn.) and results were expressed as counts per minute (cpm). Non-specific binding was determined in the presence of 1 μM oxymetazoline for hα2A- and hα2B receptors and 1 μM spiroxatrine for hα2C receptors.
(§4) Data from assays in the presence of compound were calculated as a percentage of total binding measured in the absence of test compound. Inhibition curves, plotting percent of total binding versus the log value of the concentration of the test compound, were automatically generated, and sigmoidal inhibition curves were fitted using non-linear regression. The pIC50 values of test compounds were derived from individual curves.

hα2C receptor = biological target: T2, hα2C receptor (Homo sapiens, UniProt P18825); test: Radioligand binding experiment for α2C-adrenergic receptor ([3H]-raulwolscine); conditions: CHO cell membranes with human α2C receptor, [3H]raulwolscine 1 nM; read-out: pIC50 α2C (converted)
T2 construct: expressed in transfected cells; host or cells: CHO cells
T2 sequence (P18825 1-462): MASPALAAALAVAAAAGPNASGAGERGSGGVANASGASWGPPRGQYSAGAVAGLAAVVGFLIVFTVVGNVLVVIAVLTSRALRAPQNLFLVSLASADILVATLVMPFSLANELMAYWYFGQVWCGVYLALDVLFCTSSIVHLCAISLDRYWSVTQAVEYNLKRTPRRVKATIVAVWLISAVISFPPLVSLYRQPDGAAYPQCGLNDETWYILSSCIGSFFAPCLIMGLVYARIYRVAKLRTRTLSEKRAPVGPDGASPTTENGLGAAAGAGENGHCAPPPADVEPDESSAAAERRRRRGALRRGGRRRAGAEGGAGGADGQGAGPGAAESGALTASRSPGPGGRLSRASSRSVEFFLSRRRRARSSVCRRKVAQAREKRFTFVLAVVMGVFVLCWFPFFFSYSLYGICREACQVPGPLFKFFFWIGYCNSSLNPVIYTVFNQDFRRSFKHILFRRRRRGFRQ
Experimental: as §1, §2, §3, §4

h5-HT transporter = biological target: T3, h5-HT transporter (Homo sapiens, UniProt P31645); test: Radioligand binding experiment for 5-HT transporter ([3H]paroxetine); conditions: human platelet membranes, [3H]paroxetine 0.5 nM
T3 construct: Human platelet membranes (Oceanix Biosciences Corporation, Hanover, Md., USA) were thawed; tissue Oceanix Biosciences Corporation; host or cells: human platelet membranes
T3 sequence (P31645 whole entry): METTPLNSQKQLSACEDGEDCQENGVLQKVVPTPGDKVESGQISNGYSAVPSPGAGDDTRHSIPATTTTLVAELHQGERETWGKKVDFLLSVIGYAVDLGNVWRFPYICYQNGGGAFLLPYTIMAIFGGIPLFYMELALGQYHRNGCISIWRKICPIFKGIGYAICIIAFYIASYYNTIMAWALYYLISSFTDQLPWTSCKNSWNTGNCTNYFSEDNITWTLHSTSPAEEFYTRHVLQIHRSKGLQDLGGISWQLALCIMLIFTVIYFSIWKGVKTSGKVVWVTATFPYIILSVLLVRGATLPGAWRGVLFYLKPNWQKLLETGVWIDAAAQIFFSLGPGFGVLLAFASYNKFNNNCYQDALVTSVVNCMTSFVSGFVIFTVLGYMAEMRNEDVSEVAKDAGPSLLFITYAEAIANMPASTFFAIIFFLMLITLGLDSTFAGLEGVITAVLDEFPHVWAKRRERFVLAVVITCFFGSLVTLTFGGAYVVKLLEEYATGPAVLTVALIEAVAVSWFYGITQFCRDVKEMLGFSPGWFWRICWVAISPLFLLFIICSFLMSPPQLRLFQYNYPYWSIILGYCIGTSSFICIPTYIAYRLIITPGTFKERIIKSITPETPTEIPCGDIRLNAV
Experimental: as §1
Human platelet membranes (Oceanix Biosciences Corporation, Hanover, Md., USA) were thawed, diluted in buffer (Tris-HCl 50 mM, 120 mM NaCl and 5 mM KCl) and quickly (max 3 s) homogenised with an Ultraturrax homogenizer. In a total volume of 250 μL, 50-100 μg protein was incubated with [^3H]paroxetine (NET-869) (New England Nuclear, USA) (0.5 nM final concentration) with or without competitor for 60 min at 25° C. Incubation was stopped by rapid filtration of the incubation mixture over GF/B filters, pre-wetted with 0.1% polyethyleneamine, using a Filtermatel 96 harvester (Packard, Meriden, Conn.). Filters were rinsed extensively with ice-cold buffer and radioactivity on the filters was counted in a Topcount liquid scintillation counter (Packard, Meriden, Conn.). Data were expressed as cpm. Imipramine (at 1 μM final concentration) was used to determine the non-specific binding.
as §4

Row | SMILES | IC50 (hα2A receptor) [nM] | IC50 (hα2C receptor) [nM] | IC50 (h5-HT transporter) [nM]
1 | COc1cc2c(cc1N(C)CCO)OCC1C2=NOC1CN1CCN(CC(C)=Cc2cccc(F)c2)CC1 (stereo not drawn) [Compound 36] | 20 | 2.51 | 25.1
2 | CC(=Cc1ccc(F)cc1)CN1CCN(CC2ON=C3c4ccc(NCCO)cc4OCC32)CC1 (stereo not drawn) [Compound 37] | 3.16 | 5.01 | 63.1
3 | CC(=Cc1ccc(F)cc1)CN1CCN(CC2ON=C3c4ccc(N(C)CCO)cc4OCC32)CC1 (stereo not drawn) [Compound 38] | 79.4 | 1.58 | 12.6
4 | COc1cc2c(cc1N(C)CCO)OCC1C2=NOC1CN1CCN(CC(C)=Cc2ccc(F)cc2)CC1 (stereo not drawn) [Compound 39] | 50.1 | 10 | 79.4
5 | CC(=Cc1ccccc1)CN1CCN(CC2ON=C3c4ccc(N(C)Cc5ccccc5)cc4OCC32)CC1 (stereo not drawn) [Compound 47] | 2.51 | 3.16 | 50.1
6 | CC(=Cc1ccccc1)CN1CCN(CC2ON=C3c4ccc(N(C)Cc5ccccc5)cc4OCC32)CC1 (stereo not drawn) [Compound 48] | 39.8 | 31.6 | 158
7 | COc1cc2c(cc1NC(C)=O)OCC1C2=NOC1CN1CCN(CC(C)=Cc2cccc(F)c2)CC1 (stereo not drawn) [Compound 49] | 1.26 | 0.251 | 7.94
8 | CC(=Cc1ccccc1)CN1CCN(CC2ON=C3c4ccc(NC(=O)C5CC5)cc4OCC32)CC1 (stereo not drawn) [Compound 51] | 1.58 | 1 | 15.8
9 | COc1cc2c(cc1NC(=O)C1CC1)OCC1C2=NOC1CN1CCN(CC(C)=Cc2ccccc2)CC1 (stereo not drawn) [Compound 52] | 3.98 | 0.631 | 20
10 | COc1cc2c(cc1NC(=O)C1CC1)OCC1C2=NOC1CN1CCN(CC(C)=Cc2cccc(F)c2)CC1 (stereo not drawn) [Compound 53] | 3.98 | 0.631 | 10
11 | CC(=Cc1ccccc1)CN1CCN(CC2ON=C3c4ccc(NC(=O)c5ccccc5)cc4OCC32)CC1 (stereo not drawn) [Compound 55] | 5.01 | 3.16 | 25.1
12 | C/C(=C\c1ccccc1)CN1CCN(CC2ON=C3c4ccc(NC(=O)[C@H]5CCCN5)cc4OCC32)CC1 (stereo partly drawn) [Compound 56] | 3.16 | 0.501 | 12.6
13 | C/C(=C\c1ccccc1)CN1CCN(CC2ON=C3c4ccc(NC(=O)[C@@H]5CCCN5)cc4OCC32)CC1 (stereo partly drawn) [Compound 57] | 5.01 | 0.631 | 25.1
14 | CC(=Cc1ccc(F)cc1)CN1CCN(CC2ON=C3c4ccc(NC(=O)OC(C)(C)C)cc4OCC32)CC1 (stereo not drawn) [Compound 58] | 63.1 | 31.6 | 31.6
15 | CCNC(=O)Nc1ccc2c(c1)OCC1C2=NOC1CN1CCN(CC(C)=Cc2ccccc2)CC1 (stereo not drawn) [Compound 59] | 7.94 | 1.26 | 10
16 | CCNC(=O)N(C(=O)NCC)c1ccc2c(c1)OCC1C2=NOC1CN1CCN(CC(C)=Cc2ccc(F)cc2)CC1 (stereo not drawn) [Compound 60] | 3160 | 398 | 6310
17 | CC(=Cc1ccccc1)CN1CCN(CC2ON=C3c4ccc(NC(=O)c5cccnc5)cc4OCC32)CC1 (stereo not drawn) [Compound 67] | 2 | 1.26 | 12.6
18 | CC(=Cc1ccc(F)cc1)CN1CCN(CC2ON=C3c4ccc(N5CCC5=O)cc4OCC32)CC1 (stereo not drawn) [Compound 69] | 3.16 | 1.26 | 20
19 | CC(=Cc1ccc(F)cc1)CN1CCN(CC2ON=C3c4ccc(N5CCc6ccccc6C5)cc4OCC32)CC1 (stereo not drawn) [Compound 73] | 50.1 | 5.01 | 63.1
20 | COc1cc2c(cc1N1CCN(C)CC1)OCC1C2=NOC1CN1CCN(CC(C)=Cc2cccc(F)c2)CC1 (stereo not drawn) [Compound 76] | 3.98 | 0.794 | 3.16
21 | COc1cc2c(cc1N1CCOCC1)OCC1C2=NOC1CN1CCN(CC(C)=Cc2cccc(F)c2)CC1 (stereo not drawn) [Compound 83] | 7.94 | 2.51 | 15.8
